In patent US20240287124A1, “PRODRUGS OF 4'-SUBSTITUTED NUCLEOSIDE REVERSE TRANSCRIPTASE INHIBITORS” (Merck Sharp & Dohme LLC, priority 2023, published 2024):
Values after ≈ are worked out from the molar mass of the structure shown. Read-outs that look alike come from different tables or passages of the source.

Experiments:
[1] = system: HIV-1 wild-type (R8) virus; experiment: Viral KINetics in Green cells (VIKING) assay, HIV-1 replication in MT4-GFP reporter cells; format: cell-based; details: Human immunodeficiency virus 1, 10% normal human serum, MT4-GFP cells, HIV-1 wild-type (R8); read-out: Viking (10% NHS), IC50
Procedure, shortened: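 Compounds in 3-fold, 10-point series (typical 4 μM-0.2 nM) in 10% normal human serum received MT4 GFP-reporter T cells pre-infected overnight with wild-type R8 virus (MOI ~0.01). Ratio of GFP-positive cells at 72 vs 48 h defined replication; IC50 from nonlinear 4-parameter dose-response fitting.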

[2] = Aqueous solubility in PBS, pH 7.4; format: physicochemical; details: pH 7.4, aqueous buffer, thermodynamic from solid, pH 7.4 phosphate buffered saline, 24 hours, amorphous or crystalline material, read-out: Aqu. Solubility
Procedure: Aqueous solubility of the compounds was determined by suspending excess solid (typically 0.3-0.5 mg) in PBS, pH 7.4, at a concentration of 0.5 mg/mL. The suspension was vortexed for 10-30 seconds to wet the material and stirred at 600 rpm for 24 hours. For analysis by UPLC, 150 μL aliquot sample was transferred into a […] PVDF spin filter and centrifuged at 14,000 rpm for 5 minutes. 100 μL of the filtrate was diluted with 100 μL 1:1 Acetonitrile (ACN):H2O. The resultant samples were analyzed using UPLC and quantified against a standard curve of the compound of interest dissolved in 1:1 ACN:H2O. The retains of the solids were checked by XRPD and PLM to determine if the phase of the material was crystalline or amorphous.

| SMILES | solubility at 24 h ([2]; phosphate buffered saline) [µg/mL] | IC50 [1] [nM] | solubility at 24 h [2] [µg/mL] |
| --- | --- | --- | --- |
| C#C[C@]1(CO)O[C@@H](n2ccc3c(N)nc(Cl)nc32)C[C@@H]1OC(=O)CCCCCCCCCCCCC [Example 26, (2R,3S,5R)-5-(4-amino-2-chloro-7H-pyrrolo[2,3-d]pyrimidin-7-yl)-2-ethynyl-2-(hydroxymethyl)tetrahydrofuran-3-yl tetradecanoate] | < 1 | 7 |  |
| C#C[C@]1(COC(=O)OCCCCCCCCCCCC)O[C@@H](n2ccc3c(N)nc(Cl)nc32)C[C@@H]1O [Example 117] | < 1 | 4 |  |
| C#C[C@]1(COC(=O)CCCCC)O[C@@H](n2ccc3c(N)nc(Cl)nc32)C[C@@H]1O [Example 116] | 39 (≈ 95.9 µM) | 4.2 |  |
| C#C[C@]1(COC(=O)CCCCCCCCCCC)O[C@@H](n2ccc3c(N)nc(Cl)nc32)C[C@@H]1O [Example 90] | < 1 | 3.9 |  |
| C#C[C@]1(CO)O[C@@H](n2ccc3c(N)nc(Cl)nc32)C[C@@H]1OC(=O)CCCc1ccccc1 [Example 60, (2R,3S,5R)-5-(4-amino-2-chloro-7H-pyrrolo[2,3-d]pyrimidin-7-yl)-2-ethynyl-2-(hydroxymethyl)tetrahydrofuran-3-yl 4-phenylbutanoate] | < 1 | 3.5 |  |
| C#C[C@]1(CO)O[C@@H](n2ccc3c(N)nc(Cl)nc32)C[C@@H]1OC(=O)OCCCCCC [Example 61, (2R,3S,5R)-5-(4-amino-2-chloro-7H-pyrrolo[2,3-d]pyrimidin-7-yl)-2-ethynyl-2-(hydroxymethyl)tetrahydrofuran-3-yl hexyl carbonate] | < 1 | 4.5 |  |
| C#C[C@]1(CO)O[C@@H](n2ccc3c(N)nc(Cl)nc32)C[C@@H]1OC(=O)OCCCCCCCCCC [Example 10, (2R,3S,5R)-5-(4-amino-2-chloro-7H-pyrrolo[2,3-d]pyrimidin-7-yl)-2-ethynyl-2-(hydroxymethyl)tetrahydrofuran-3-yl decyl carbonate] | < 1 | 9.9 |  |
| C#C[C@]1(COC(=O)OCCC23CC4CC(CC(C4)C2)C3)O[C@@H](n2ccc3c(N)nc(Cl)nc32)C[C@@H]1O [Example 35, 2-(adamantan-1-yl)ethyl (((2R,3S,5R)-5-(4-amino-2-chloro-7H-pyrrolo[2,3-d]pyrimidin-7-yl)-2-ethynyl-3-hydroxytetrahydrofuran-2-yl)methyl) carbonate] | < 1 | 6.2 |  |
| C#C[C@]1(COP(=O)(N[C@@H](C)C(=O)OC(C)C)Oc2ccc3ccccc3c2)O[C@@H](n2ccc3c(N)nc(Cl)nc32)C[C@@H]1O (some centres unmarked) [Example 75] |  | 47 | 30 (≈ 47.8 µM) |
| C#C[C@]1(COC(=O)[C@@H](C)c2ccccc2)O[C@@H](n2ccc3c(N)nc(Cl)nc32)C[C@@H]1O [Example 101] | 19 (≈ 43.1 µM) | 3.4 |  |
| C#C[C@]1(COC(=O)Cc2ccc(Cl)cc2)O[C@@H](n2ccc3c(N)nc(Cl)nc32)C[C@@H]1OC(=O)Cc1ccc(Cl)cc1 [Example 34, (2R,3S,5R)-5-(4-amino-2-chloro-7H-pyrrolo[2,3-d]pyrimidin-7-yl)-2-((2-(4-chlorophenyl)acetoxy)methyl)-2-ethynyltetrahydrofuran-3-yl 2-(4-chlorophenyl)acetate] | < 1 | 6.1 |  |
| C#C[C@]1(CO)O[C@@H](n2ccc3c(N)nc(Cl)nc32)C[C@@H]1OC(=O)OCCCCCCCC [Example 79] | < 1 | 4.3 |  |
| C#C[C@]1(COC(=O)Cc2ccc(F)cc2)O[C@@H](n2ccc3c(N)nc(Cl)nc32)C[C@@H]1OC(=O)Cc1ccc(F)cc1 [Example 29, (2R,3S,5R)-5-(4-amino-2-chloro-7H-pyrrolo[2,3-d]pyrimidin-7-yl)-2-ethynyl-2-((2-(4-fluorophenyl)acetoxy)methyl)tetrahydrofuran-3-yl 2-(4-fluorophenyl)acetate] | < 1 | 5.8 |  |
| C#C[C@]1(COC(=O)OCc2ccccc2)O[C@@H](n2ccc3c(N)nc(Cl)nc32)C[C@@H]1OC(=O)OCCCCCC [Example 68, ((2R,3S,5R)-5-(4-amino-2-chloro-7H-pyrrolo[2,3-d]pyrimidin-7-yl)-2-ethynyl-3-(((hexyloxy)carbonyl)oxy)tetrahydrofuran-2-yl)methylbenzyl carbonate] | < 1 | 6.5 |  |
| C#C[C@]1(CO)O[C@@H](n2ccc3c(N)nc(Cl)nc32)C[C@@H]1OC(=O)OCc1ccccc1 [Example 27, (2R,3S,5R)-5-(4-amino-2-chloro-7H-pyrrolo[2,3-d]pyrimidin-7-yl)-2-ethynyl-2-(hydroxymethyl)tetrahydrofuran-3-ylbenzyl carbonate] | < 1 | 3.1 |  |
| C#C[C@]1(CO)O[C@@H](n2ccc3c(N)nc(Cl)nc32)C[C@@H]1OC(=O)OCCCCC [Example 13, (2R,3S,5R)-5-(4-amino-2-chloro-7H-pyrrolo[2,3-d]pyrimidin-7-yl)-2-ethynyl-2-(hydroxymethyl)tetrahydrofuran-3-yl pentyl carbonate] | 1.9 (≈ 4.49 µM) | 2.2 |  |
| C#C[C@]1(COC(=O)Cc2ccc(F)cc2)O[C@@H](n2ccc3c(N)nc(Cl)nc32)C[C@@H]1O [Example 37, ((2R,3S,5R)-5-(4-amino-2-chloro-7H-pyrrolo[2,3-d]pyrimidin-7-yl)-2-ethynyl-3-hydroxytetrahydrofuran-2-yl)methyl 2-(4-fluorophenyl)acetate] | 118 (≈ 265 µM) | 2.3 |  |
| C#C[C@]1(CO)O[C@@H](n2ccc3c(N)nc(Cl)nc32)C[C@@H]1OC(=O)OCCCC [Example 82] | 11 (≈ 26.9 µM) | 4 |  |
| C#C[C@]1(CO)O[C@@H](n2ccc3c(N)nc(Cl)nc32)C[C@@H]1OC(=O)CCCCCCCCC [Example 4, (2R,3S,5R)-5-(4-amino-2-chloro-7H-pyrrolo[2,3-d]pyrimidin-7-yl)-2-ethynyl-2-(hydroxymethyl)tetrahydrofuran-3-yl decanoate] | < 1 | 2.9 |  |
| C#C[C@]1(COC(=O)CCCCCCCCC)O[C@@H](n2ccc3c(N)nc(Cl)nc32)C[C@@H]1O [Example 20, ((2R,3S,5R)-5-(4-amino-2-chloro-7H-pyrrolo[2,3-d]pyrimidin-7-yl)-2-ethynyl-3-hydroxytetrahydrofuran-2-yl)methyl decanoate] | < 1 | 2.8 |  |
| C#C[C@]1(COC(=O)c2ccccn2)O[C@@H](n2ccc3c(N)nc(Cl)nc32)C[C@@H]1OC(=O)c1ccccn1 [Example 49, (2R,3S,5R)-5-(4-amino-2-chloro-7H-pyrrolo[2,3-d]pyrimidin-7-yl)-2-ethynyl-2-((picolinoyloxy)methyl)tetrahydrofuran-3-yl picolinate] | 49 (≈ 94.4 µM) | 7.5 |  |

Second part, led by results:

| solubility at 24 h ([2]; phosphate buffered saline) [µg/mL] | SMILES | IC50 [1] [nM] | solubility at 24 h [2] [µg/mL] |
| --- | --- | --- | --- |
| < 1 | C#C[C@]1(COC(=O)OCc2ccccc2)O[C@@H](n2ccc3c(N)nc(Cl)nc32)C[C@@H]1OC(=O)OCCCC [Example 212] | 4.8 |  |
| 1.2 (≈ 1.46 µM) | C#C[C@]1(COC(=O)OCCCCC[C@@H]2SC[C@@H]3NC(=O)N[C@@H]32)O[C@@H](n2ccc3c(N)nc(Cl)nc32)C[C@@H]1OC(=O)OCCCCC[C@@H]1SC[C@@H]2NC(=O)N[C@@H]21 [Example 207] | 21 |  |
| < 1 | C#C[C@]1(CO)O[C@@H](n2ccc3c(NC(=O)CCCCCCCCC)nc(Cl)nc32)C[C@@H]1O [Example 197] | 29 |  |
| 57 (≈ 135 µM) | C#C[C@]1(COC(=O)CCCCCC)O[C@@H](n2ccc3c(N)nc(Cl)nc32)C[C@@H]1O [Example 119] | 3.5 |  |
| 1.2 (≈ 2.47 µM) | C#C[C@]1(COC(=O)OCc2ccccc2)O[C@@H](n2ccc3c(N)nc(Cl)nc32)C[C@@H]1OC(C)=O [Example 193] | 29 |  |
| < 1 | C#C[C@]1(COC(=O)OCc2ccccc2)O[C@@H](n2ccc3c(N)nc(Cl)nc32)C[C@@H]1OC(=O)OCc1ccccc1 [Example 214] | 4.7 |  |
| < 1 | C#C[C@]1(COC(=O)OCc2cc[nH]c(=O)c2)O[C@@H](n2ccc3c(N)nc(Cl)nc32)C[C@@H]1OC(=O)OCc1ccccc1 [Example 161] | 5.8 |  |
| 229 (≈ 493 µM) | C#C[C@]1(COC(=O)OCc2oc(=O)oc2C)O[C@@H](n2ccc3c(N)nc(Cl)nc32)C[C@@H]1O [Example 143] | 2.9 |  |
| 108 (≈ 247 µM) | C#C[C@]1(COC(=O)OCCCCCC)O[C@@H](n2ccc3c(N)nc(Cl)nc32)C[C@@H]1O [Example 120] | 3.8 |  |
| < 1 | C#C[C@]1(CO)O[C@@H](n2ccc3c(N)nc(Cl)nc32)C[C@@H]1OC(=O)OCCCCCCC [Example 153] | 3.8 |  |
| 27 (≈ 71.3 µM) | C#C[C@]1(CO)O[C@@H](n2ccc3c(N)nc(Cl)nc32)C[C@@H]1OC(=O)CCC [Example 179] | 11 |  |
| < 1 | C#C[C@]1(COC(=O)OCCCCCCCCCCCCCC)O[C@@H](n2ccc3c(N)nc(Cl)nc32)C[C@@H]1O [Example 163] | 3.5 |  |
| < 1 | C#C[C@]1(COC(=O)CCCC[C@@H]2SC[C@@H]3NC(=O)N[C@@H]32)O[C@@H](n2ccc3c(N)nc(Cl)nc32)C[C@@H]1OC(=O)CCCc1ccccc1 [Example 190] | 6.5 |  |
